Source: patent EP0048954A2, “Beta-lactam compounds, process for the preparation thereof and intermediate products for the preparation thereof” (SAGAMI CHEMICAL RESEARCH CENTER, priority 1980, dated 1982)
≈ marks a conversion by molar mass, not a printed value. Where “and” joins values, the source holds several entries; their conditions need not be identical. Equal values may be shown once.

Tests used:
Test in all cases: Antibacterial activity, minimum inhibition concentration (method of The Chemotherapy Association, Japan)
Format in all cases: cell-based
Proteus vulgaris OX-19 = conditions: Proteus vulgaris, OX19, strain H: Proteus vulgaris OX-19; read-out: minimum inhibition concentration
From the text: (§1) The abbreviations A to P will be used in the following Tables 2 to 8.
(§2) Test results are shown in terms of the minimum inhibition concentration (µg/mℓ.) in the following Tables 2 to 8.

Proteus rettgeri NIH-96 = conditions: for MIC: Providencia rettgeri, NIH96, strain I: Proteus rettgeri NIH-96, read-out: minimum inhibition concentration; for minimum inhibition concentration: strain I: Proteus rettgeri NIH-96
From the text: as §1, §2

Klebsiella pneumoniae = conditions: strain C: Klebsiella pneumoniae; for MIC: Klebsiella pneumoniae, read-out: minimum inhibition concentration
Experimental: (§3) Antibacterial activities of the compounds according to this invention, which had been prepared in the preceding Examples, were measured according to the method prescribed by The Committee of Amendment of "The method for measurement of the minimum inhibition concentration", The Chemotherapy Association, Japan (See Chemotherapy, Vol. 22, No. 6, pp. 1126 - 1128 (1974) and Vol. 29, No. 1, pp. 76 - 79 (1981)).
as §1, §2

[1] = test system: Salmonella typhimurium 3173; conditions: Salmonella enterica, TYPHIMURIUM, strain D: Salmonella typhimurium 3173; read-out: minimum inhibition concentration
Experimental: as §3, §1, §2

[2] = test system: Serratia marcescens IFO-3736; conditions: for MIC: Serratia marcescens, IFO3736, strain F: Serratia marcescens IFO-3736, read-out: minimum inhibition concentration; for minimum inhibition concentration: strain F: Serratia marcescens IFO-3736
Experimental: as §3, §1, §2

Proteus morgani Kono = conditions: strain J: Proteus morgani Kono; for MIC: read-out: minimum inhibition concentration
Experimental: as §3, §1, §2

[3] = test system: Citrobactor freundii NIH-10018 -68; conditions: strain O: Citrobactor freundii NIH-10018 -68; read-out: minimum inhibition concentration
Experimental: as §3, §1, §2

Escherichia coli NIHJ = conditions: strain K: Escherichia coli NIHJ; for MIC: Escherichia coli, read-out: minimum inhibition concentration
Experimental: as §3, §1, §2

[4] = test system: Staphylococcus aureus 6538-P; conditions: strain A: Staphylococcus aureus 6538-P; read-out: minimum inhibition concentration
Experimental: as §3, §1, §2

[5] = test system: Bacillus subtilis ATCC 6633; conditions: for MIC: Bacillus subtilis, ATCC6633, strain B: Bacillus subtilis ATCC 6633, read-out: minimum inhibition concentration
Experimental: as §3, §1, §2

[6] = test system: Enterobactor cloacae NCTC-9394; conditions: strain N: Enterobactor cloacae NCTC-9394; for MIC: read-out: minimum inhibition concentration
Experimental: as §3, §1, §2

[7] = test system: Pseudomonas aeruginosa NCTC-10490; conditions: for MIC: Pseudomonas aeruginosa, NCTC10490, strain M: Pseudomonas aeruginosa NCTC-10490, read-out: minimum inhibition concentration; for minimum inhibition concentration: strain M: Pseudomonas aeruginosa NCTC-10490
Experimental: as §3, §1, §2

Serratia marcescens 1023 = conditions: for MIC: Serratia marcescens, 1023, strain E: Serratia marcescens 1023, read-out: minimum inhibition concentration
Experimental: as §3, §1, §2

Escherichia coli NIHJC-2 = conditions: for MIC: Escherichia coli, NIHJC2, strain L: Escherichia coli NIHJC-2, read-out: minimum inhibition concentration
Experimental: as §3, §1, §2

[8] = test system: Proteus mirabillis B-30-2 IFO-3849; conditions: strain G: Proteus mirabillis B-30-2 IFO-3849; for MIC: read-out: minimum inhibition concentration
Experimental: as §3, §1, §2

SMILES | MIC (Proteus vulgaris OX-19) | MIC (Proteus rettgeri NIH-96) | MIC (Klebsiella pneumoniae) | MIC [1] | MIC [2] | MIC (Proteus morgani Kono) | MIC [3] | MIC (Escherichia coli NIHJ) | MIC [4] | MIC [5] | MIC [6] | MIC [7] | MIC (Serratia marcescens 1023) | MIC (Escherichia coli NIHJC-2) | MIC [8] | further results
CC(=O)OCC1=C(C(=O)O)N2C(=O)C(NC(=O)C(=C(Cl)Cl)c3ccc(O)cc3)[C@H]2SC1 (stereo partly shown) [Compound 2, 7-[2-dichloromethylene-2-(4-hydroxyphenyl)acetamido]-3-acetoxymethyl-3-cephem-4-carboxylic acid] | 6.25 µg/mL (≈ 12.8 µM) | 0.2 µg/mL (≈ 0.41 µM) | > 100 µg/mL | 100 µg/mL (≈ 205 µM) | > 100 µg/mL | > 100 µg/mL | > 100 µg/mL | 0.39 µg/mL (≈ 0.8 µM) | 0.39 µg/mL (≈ 0.8 µM) | 3.12 µg/mL (≈ 6.41 µM) | > 100 µg/mL | 6.25 µg/mL (≈ 12.8 µM) | 6.25 µg/mL (≈ 12.8 µM) | > 100 µg/mL | > 100 µg/mL | 
Cn1nnnc1SCC1=C(C(=O)O)N2C(=O)C(NC(=O)C(=C(Cl)Cl)c3ccco3)C2SC1 (stereo not shown) [Compound 1, 7-[2-dichloromethylene-2-(2-furyl)acetamido]-3-(1-methyl-IH-tetrazol-5-yl)thiomethyl-3-cephem-4-carboxylic acid] | 0.2 µg/mL (≈ 0.387 µM) | < 0.025 µg/mL | 25 µg/mL (≈ 48.3 µM) | 12.5 µg/mL (≈ 24.2 µM) | 50 µg/mL (≈ 96.6 µM) | 50 µg/mL (≈ 96.6 µM) | 12.5 µg/mL (≈ 24.2 µM) | < 0.025 µg/mL | 0.39 µg/mL (≈ 0.754 µM) | 1.56 µg/mL (≈ 3.02 µM) | 6.25 µg/mL (≈ 12.1 µM) | 3.12 µg/mL (≈ 6.04 µM) | 1.56 µg/mL (≈ 3.02 µM) | 25 µg/mL (≈ 48.3 µM) | 50 µg/mL (≈ 96.6 µM) | 
CC(=O)OCC1=C(C(=O)O)N2C(=O)C(NC(=O)C(=C(Cl)Cl)c3ccc(Cl)c(Cl)c3)[C@H]2SC1 (stereo partly shown) [Compound 30, 7-[2-dichloromethylene-2-(3,4-dichlorophenyl)acetamido]-3-acetoxymethyl-3-cephem-4-carboxylic acid] | > 100 µg/mL | 6.25 µg/mL (≈ 11.6 µM) | > 100 µg/mL | > 100 µg/mL | > 100 µg/mL | > 100 µg/mL | > 100 µg/mL | 100 µg/mL (≈ 185 µM) | 100 µg/mL (≈ 185 µM) | 0.78 µg/mL (≈ 1.44 µM) | > 100 µg/mL | 100 µg/mL (≈ 185 µM) | 6.25 µg/mL (≈ 11.6 µM) | > 100 µg/mL | > 100 µg/mL | 
CO/N=C(\C(=O)N[C@@H]1C(=O)N2C(C(=O)O)=C(COC(C)=O)CS[C@H]12)c1csc(N)n1 [Cefotaxime, reference compound] | < 0.025 µg/mL |  | 0.1 µg/mL (≈ 0.22 µM) | 0.1 µg/mL (≈ 0.22 µM) | 0.2 µg/mL (≈ 0.439 µM) |  | 0.2 µg/mL (≈ 0.439 µM) |  | 0.39 µg/mL (≈ 0.856 µM) |  | 0.39 µg/mL (≈ 0.856 µM) | 0.78 µg/mL (≈ 1.71 µM) | 50 µg/mL (≈ 110 µM) | 0.2 µg/mL (≈ 0.439 µM) |  | minimum inhibition concentration (Proteus rettgeri NIH-96): <0.00625 µg/mL; minimum inhibition concentration (Proteus rettgeri NIH-96; listed as Cefota-xime): <0.025 µg/mL; minimum inhibition concentration (Klebsiella pneumoniae): 0.05 µg/mL (≈ 0.11 µM); minimum inhibition concentration [2]: 0.2 µg/mL (≈ 0.439 µM); minimum inhibition concentration ([2]; listed as Cefota-xime): 0.39 µg/mL (≈ 0.856 µM); minimum inhibition concentration (Proteus morgani Kono): 0.39 µg/mL (≈ 0.856 µM); minimum inhibition concentration (Proteus morgani Kono; listed as Cefota-xime): 1.56 µg/mL and 0.78 µg/mL; minimum inhibition concentration (Escherichia coli NIHJ): <0.00625 µg/mL; minimum inhibition concentration (Escherichia coli NIHJ; listed as Cefota-xime): <0.025 µg/mL; minimum inhibition concentration ([5]; strain B: Bacillus subtilis ATCC 6633): 6.25 µg/mL (≈ 13.7 µM); minimum inhibition concentration [6]: 0.2 µg/mL (≈ 0.439 µM); minimum inhibition concentration ([6]; listed as Cefota-xime): 0.2 µg/mL (≈ 0.439 µM); minimum inhibition concentration [7]: 0.39 µg/mL (≈ 0.856 µM); minimum inhibition concentration ([7]; listed as Cefota-xime): 0.39 µg/mL (≈ 0.856 µM); minimum inhibition concentration (Serratia marcescens 1023; strain E: Serratia marcescens 1023): 100 µg/mL (≈ 220 µM); minimum inhibition concentration (Escherichia coli NIHJC-2; strain L: Escherichia coli NIHJC-2): 0.1 µg/mL (≈ 0.22 µM); minimum inhibition concentration [8]: 0.025 µg/mL (≈ 0.0549 µM); minimum inhibition concentration ([8]; listed as Cefota-xime): 0.1 µg/mL (≈ 0.22 µM)
CC(=O)OCC1=C(C(=O)O)N2C(=O)C(NC(=O)C(=C(Cl)Cl)c3ccc(Cl)cc3)[C@H]2SC1 (stereo partly shown) [Compound 29, 7-[2-dichloromethylene-2-(4-chlorophenyl)acetamido]-3-acetoxymethyl-3-cephem-4-carboxylic acid] | > 100 µg/mL | 3.12 µg/mL (≈ 6.18 µM) | > 100 µg/mL | > 100 µg/mL | > 100 µg/mL | > 100 µg/mL | > 100 µg/mL | 100 µg/mL (≈ 198 µM) | > 100 µg/mL | 1.56 µg/mL (≈ 3.08 µM) | > 100 µg/mL | > 100 µg/mL | 12.5 µg/mL (≈ 24.7 µM) | > 100 µg/mL | > 100 µg/mL | 
